The values that follow come from ChEMBL document CHEMBL1128212, “Synthesis and biological evaluation of substituted flavones as gastroprotective agents” (1995).

Experiment [1] concerns Rattus norvegicus. As to the kind of experiment: Percent protection from gastric damage in rats relative to vehicle control following intraperitoneal administration of 20 mg/Kg. In kind it is functional, Stomach.
Experiment [2] concerns Rattus norvegicus. The experiment in a line: Compound was evaluated for its effect on rat liver microsomal NADPH-[…] c reductase by the change in its concentration at a dose of 250 mg/kg. In kind it is functional, organism-based. More on the design: dose 250 mg/kg.
Experiment [3] deals with Rattus norvegicus. As to the kind of experiment: Compound was evaluated for its effect on rat liver microsomal cytochrome P450 by the change in its concentration at a dose of 250 mg/kg. Set-up: dose 250 mg/kg. Type of experiment: functional, organism-based.
Experiment [4] concerns Rattus norvegicus. As to the kind of experiment: Compound was evaluated for its effect on rat liver microsomal EROD(7-ethoxyresorufin O-dealkylase) by the change in its concentration at a dose of 250 mg/kg. Type of experiment: functional, organism-based. Set-up: dose 250 mg/kg.
For experiment [5], the species on record is Rattus norvegicus. The experiment in a line: The dose required to produce a 50% gastroprotection level relative to control. Type of experiment: functional.
Experiment [6] deals with Rattus norvegicus. As to the kind of experiment: Compound was evaluated for its effect on rat liver microsomal cytochrome b5 by the change in its concentration at a dose of 250 mg/kg. Set-up: dose 250 mg/kg. In kind it is functional, organism-based.
Experiment [7] deals with Rattus norvegicus. As to the kind of experiment: Gastroprotection percentage taken from rat indomethacin damage model at a dose 0.25 mg/kg administered orally. Type of experiment: functional. The note with it: route oral.
For experiment [8], the system named is Rattus norvegicus. As to the kind of experiment: Compound was evaluated for its effect on rat liver microsomal cytochrome b5 by the change in its concentration at a dose of 100 mg/kg. Set-up: dose 100 mg/kg. In kind it is functional, organism-based.
In experiment [9] the test system is Rattus norvegicus. As to the kind of experiment: Compound was evaluated for its effect on rat liver microsomal cytochrome P450 by the change in its concentration at a dose of 100 mg/kg. Type of experiment: functional, organism-based. Set-up: dose 100 mg/kg.
For experiment [10], the system named is Rattus norvegicus. The experiment in a line: Compound was evaluated for its effect on rat liver microsomal EROD(7-ethoxyresorufin O-dealkylase) by the change in its concentration at a dose of 100 mg/kg. In kind it is functional, organism-based. Set-up: dose 100 mg/kg.
Experiment [11] relates to Rattus norvegicus. As to the kind of experiment: Compound was evaluated for its effect on rat liver microsomal NADPH-[…] c reductase by the change in its concentration at a dose of 100 mg/kg. In kind it is functional, organism-based. Set-up: dose 100 mg/kg.
For experiment [12], the system named is Rattus norvegicus. The experiment in a line: Gastroprotection percentage taken from rat indomethacin damage model at a dose 30 mg/kg administered orally. In kind it is functional. The note with it: route oral.
Experiment [13] has as its system Rattus norvegicus. The experiment in a line: Compound was evaluated for its effect on rat liver microsomal NADPH-[…] c reductase by the change in its concentration at a dose of 268 mg/kg. Type of experiment: functional, organism-based. More on the design: dose 268 mg/kg.
Experiment [14] concerns Rattus norvegicus. The experiment in a line: Compound was evaluated for its effect on rat liver microsomal EROD(7-ethoxyresorufin O-dealkylase) by the change in its concentration at a dose of 268 mg/kg. Type of experiment: functional, organism-based. More on the design: dose 268 mg/kg.
Experiment [15] relates to Rattus norvegicus. The experiment in a line: Compound was evaluated for its effect on rat liver microsomal cytochrome P450 by the change in its concentration at a dose of 268 mg/kg. In kind it is functional, organism-based. Set-up: dose 268 mg/kg.
The subject of experiment [16] is Rattus norvegicus. As to the kind of experiment: Compound was evaluated for its effect on rat liver microsomal cytochrome b5 by the change in its concentration at a dose of 268 mg/kg. More on the design: dose 268 mg/kg. Type of experiment: functional, organism-based.

`COc1cccc2c(=O)cc(-c3ccccc3)oc12` [8-METHOXYFLAVONE] yielded a Protection in experiment [1] of 53%. As to `COc1ccc2c(=O)cc(-c3ccccc3)oc2c1` [7-METHOXYFLAVONE], the Concentration (nM min-1 (mg of protein)-1) in [2] was determined as 339; in experiment [3], 1.42; in experiment [4], 442; in experiment [6], 0.73. This compound registered a Protection in [1] of 89%. The compound also yielded an ED50 in [5] of 5.9 mg/kg. Compound `Cc1ccc2c(=O)cc(-c3ccccc3)oc2c1` [7-METHYLFLAVONE] yielded a Protection in [1] of 90%. Besides, it took a dose of 5.6 mg/kg to reach the 50% effect level in experiment [5] (ED50). `O=c1cc(-c2ccc(O)cc2)oc2ccccc12` came in with a Protection in experiment [1] of 63%.

In experiment [1], `COc1cccc(-c2cc(=O)c3ccccc3o2)c1` displayed a Protection of 48%.

The compound `O=c1c(O)c(-c2ccccc2)oc2ccccc12` [FLAVONOL] returned a Protection in experiment [1] of 47%. For the compound `COc1cccc2oc(-c3ccccc3)cc(=O)c12`, the Protection in [1] stood at 97%. For the same compound, the 50% effect level in [5] (ED50) was put at a dose of 2.6 mg/kg. The compound `COc1ccc(-c2cc(=O)c3c(OC)cccc3o2)cc1` returned a Protection in experiment [1] of 33%. On the same count and under the same terms, with `COc1ccc2c(=O)cc(-c3ccccc3Cl)oc2c1` the figure was 80%; with `COc1cccc2oc(-c3ccc(C(F)(F)F)cc3)cc(=O)c12`, 65%. The same measure, in the same setting: with `CCOc1cccc2oc(-c3ccccc3)cc(=O)c12` the figure was 36%; with `COc1cccc2oc(-c3ccc([N+](=O)[O-])cc3)cc(=O)c12`, 52%.

In turn, `COc1cccc2oc(-c3ccc(C)cc3)cc(=O)c12` yielded a Protection in experiment [1] of 93%. Same read-out and setting: with `COc1c(-c2ccccc2)oc2ccccc2c1=O` the figure was 41%. On the same count and under the same terms, with `Cc1ccc(-c2cc(=O)c3ccccc3o2)cc1` the figure was 68%; with `Cc1ccccc1-c1cc(=O)c2ccccc2o1`, 92%. In the case of `COc1cccc2oc(-c3ccccc3Cl)cc(=O)c12`, the Protection in experiment [1] is 89%. The same measure, in the same setting: with `COc1cccc2oc(-c3ccc(Cl)cc3)cc(=O)c12` the figure was 94%. `CCCCC[C@H](O)/C=C/[C@H]1[C@H](O)CC(=O)[C@@H]1C/C=C\CCCC(=O)O` [DINOPROSTONE]: the Protection in [7] is 61%; in experiment [1], 82%.

`COc1ccc(-c2cc(=O)c3ccccc3o2)cc1` [4'-METHOXYFLAVONE]: in [1], the Protection is 21%. For the compound `COc1ccc2oc(-c3ccccc3)cc(=O)c2c1` [6-METHOXYFLAVONE], in [1], the Protection is given as 29%.

With `COc1cccc2oc(-c3cccc(C(F)(F)F)c3)cc(=O)c12`, the Protection in experiment [1] amounted to 90%. The ED50 in experiment [5] turned out to be 3.3 mg/kg. In experiment [1], `O=c1cc(-c2ccccc2)oc2ccc(O)cc12` [6-HYDROXYFLAVONE] came in with a Protection of 57%.

With `Cc1cccc2oc(-c3ccccc3)cc(=O)c12`, in experiment [1], the Protection came to 52%. The same measure, in the same setting: in the case of `O=c1cc(-c2ccccc2)oc2cc(O)ccc12` [7-HYDROXYFLAVONE] it was 75%. For `O=c1cc(-c2ccccc2)oc2ccc3ccccc3c12`, the Concentration (nM min-1 (mg of protein)-1) in [8] stood at 0.79; in experiment [9] it was 2.02; in experiment [10], 5010; in experiment [11], 166.

In experiment [1], `O=c1cc(-c2ccccc2)oc2ccccc12` [FLAVONE] returned a Protection of 93%. Also, the 50% effect level in experiment [5] (ED50) was put at a dose of 6.9 mg/kg.

In turn, `O=c1cc(-c2ccccc2)oc2c(O)cccc12` gave a Protection in experiment [1] of 46%.

On to `COc1ccccc1-c1cc(=O)c2ccccc2o1`, for which the Protection in [1] was found to be 66%. The 50% effect level in [5] (ED50) was put at a dose of 22.4 mg/kg. In experiment [1], `O=c1cc(-c2cccc(O)c2)oc2ccccc12` had a Protection of 71%. Turning to `COc1ccc2c(=O)cc(-c3ccc(F)cc3)oc2c1`, the Protection in [1] is given as 67%. In [5], this compound showed an ED50 of 8.9 mg/kg. In experiment [1], `O=c1cc(-c2ccccc2O)oc2ccccc12` yielded a Protection of 78%. This compound registered an ED50 in experiment [5] of 15.6 mg/kg. Turning to `COc1cccc2oc(-c3ccc(F)cc3)cc(=O)c12`, the Protection in [12] came out at 76%; in [1] it was 97%. For the same compound, the Concentration (nM min-1 (mg of protein)-1) in experiment [13] was found to be 275; in [14], 1110; in experiment [15], 1.17; in experiment [16], 0.65. For the same compound, the 50% effect level in experiment [5] (ED50) was put at a dose of 5.5 mg/kg. `CCOc1ccc2c(=O)cc(-c3ccccc3)oc2c1` came in with a Protection in experiment [1] of 87%. `COc1ccc2c(=O)cc(-c3cccc(C(F)(F)F)c3)oc2c1`: the Protection in experiment [1] is listed as 67%. In experiment [1], `O=c1cc(-c2ccccc2)oc2cccc(O)c12` [5-HYDROXYFLAVONE] had a Protection of 58%. On the same count and under the same terms, in the case of `CCCCOc1cccc2oc(-c3ccccc3)cc(=O)c12` it was 75%; in that of `CN/C(=N\CCSCc1nc[nH]c1C)NC#N` [CIMETIDINE], 14%; in that of `C=CCOc1cccc2oc(-c3ccccc3)cc(=O)c12`, 57%.
